{"source": "patent US20240058335A1", "about": "“METHODS FOR TREATMENT OF CANCER USING ABL INHIBITORS AND DRUGS TARGETING THE MEVALONATE PATHWAY” (Duke University, priority 2021, published 2024)", "system": "PC9 cells", "test": "Pooled metabolically focused CRISPR/Cas9 loss-of-function screen with GNF5 (gene-level three scores)", "format": "cell-based, human", "procedure": "POOLED CRISPR SCREEN. PC9 cells were seeded into 12, six-well plates at 0.25e6 cells/well. A separate plate was also prepared for no puromycin and puromycin controls of non-transduced cells. Cells were transduced at a MOI of 0.2. 24 hours after viral transduction, cells were replated into puromycin-containing media. A sample was collected at 48 hours of puromycin exposure to confirm library coverage in the transduced population. Transduced cells were expanded in puromycin for a total of 10 days prior to drug introduction, at which point the transduced cell population was split into vehicle (DMSO) and GNF5 treatment conditions and maintained for up to two weeks. Cells were treated with 2 μM GNF5 which corresponded to 20-30% loss in cell viability following a 3-day dose response assay. Cells were counted, replated, and drug replenished every day. At any given point during the screen, each replicate was represented by a minimum of 12E6 cells, sufficient to provide 1000×coverage of the library (1000 cells per unique sgRNA). Samples of 25E6 cells were collected upon screen initiation, termination, and at weekly intervals. Following completion of the screens, DNA was extracted (DNeasy Blood & Tissue Kit, QIAGEN) and prepared for sequencing as previously described.\nSCREEN ANALYSIS. Deep sequencing was performed on an Illumina Nextseq platform (75 bp, paired-ended) to identify differences in library composition. All sequencing was performed by the Duke University genome sequencing facility. Barcoded reads were mapped to the guide RNA library using bcSeq to obtain the counts for each guide RNA. Determinations of genetic essentiality and drug sensitization/resistance were made by evaluating differential guide compositions between the initial population and subsequent drug-treated and vehicle-treated cells populations. Briefly, the fractional representation (FR) for the guide reads within a sample was normalized to the total reads attributed to that sample. A direct comparison between two samples was represented by the quotient of the respective FRs in the log 2 scale, which is termed the depletion metric (DM). The guide-level DMs for each gene were then collapsed to gene-level scores by taking the average of the top three most depleted constructs resulting in a biased analysis focused on depleted genes. Genes represented by fewer than 5 guides per condition were excluded from analysis. In the 2,322-gene library, 7 genes (representing 0.3% of the total library) were excluded. Genetic essentiality was calculated by considering the depletion/enrichment of the vehicle-treated (DSMO) population over time (DMSO final/DSMO initial). Drug sensitization/resistance was calculated by considering the depletion/enrichment of the drug-treated population relative to the vehicle-treated population (Drug final/DMSO final). All depletion/enrichment effects are reported as log 2 ratios. All analyses were conducted using the R statistical environment (https://www.r-project.org/) along with extension packages from the comprehensive R archive network (CRAN; available at cran.r-project.org/) and the Bioconductor project. The analyses were carried out with adherence to the principles of reproducible analysis using the knitr package for generation of dynamic reports and gitlab for source code management. The code for replicating the statistical analysis was made accessible through a public source code repository, available at gitlab.oit.duke.edu/dcibioinformatics/pubs/pendergast-crispr-barcode.\nBecause many metabolic genes are known to be essential to cellular viability, determining the effect of cell-essential genetic loss on apoptosis is difficult. […] The remaining cell-essential genes are captured by the screen.\nMetabolically focused CRISPR/Cas9 loss-of-function screen identifies HMGCR inhibition with statin therapy as an apoptotic sensitizer in lung cancer cells. […]"}
{"smiles": "O=C(NCCO)c1cccc(-c2cc(Nc3ccc(OC(F)(F)F)cc3)ncn2)c1", "note": "[GNF5]", "values": [{"measurement": "log2 TS", "setting": "CCBL1 knockout", "result": "−0.2362"}, {"measurement": "log2 TS", "setting": "CCBL2 knockout", "result": "−0.00176"}, {"measurement": "log2 TS", "setting": "CCDC102B knockout", "result": "−0.3186"}, {"measurement": "log2 TS", "setting": "CCDC155 knockout", "result": "−0.128"}, {"measurement": "log2 TS", "setting": "CDA knockout", "result": "−0.3678"}, {"measurement": "log2 TS", "setting": "CDADC1 knockout", "result": "−0.189"}, {"measurement": "log2 TS", "setting": "CDC14A knockout", "result": "−0.5269"}, {"measurement": "log2 TS", "setting": "CDC14B knockout", "result": "−0.3312"}, {"measurement": "log2 TS", "setting": "CDC25A knockout", "result": "−0.3125"}, {"measurement": "log2 TS", "setting": "CDC25B knockout", "result": "−0.5769"}, {"measurement": "log2 TS", "setting": "CDC25C knockout", "result": 0.02041}, {"measurement": "log2 TS", "setting": "CDKN3 knockout", "result": "−0.2304"}, {"measurement": "log2 TS", "setting": "CDO1 knockout", "result": "−0.3626"}, {"measurement": "log2 TS", "setting": "CECR1 knockout", "result": 0.1378}, {"measurement": "log2 TS", "setting": "CEL knockout", "result": "−0.2626"}, {"measurement": "log2 TS", "setting": "CERK knockout", "result": "−0.2067"}, {"measurement": "log2 TS", "setting": "CERKL knockout", "result": "−0.4755"}, {"measurement": "log2 TS", "setting": "CERS1 knockout", "result": "−0.5675"}, {"measurement": "log2 TS", "setting": "CERS2 knockout", "result": "−0.1757"}, {"measurement": "log2 TS", "setting": "CERS3 knockout", "result": "−0.3966"}, {"measurement": "log2 TS", "setting": "CERS4 knockout", "result": "−0.0552"}, {"measurement": "log2 TS", "setting": "CERS5 knockout", "result": "−0.09954"}, {"measurement": "log2 TS", "setting": "CERS6 knockout", "result": "−0.2316"}, {"measurement": "log2 TS", "setting": "CES1 knockout", "result": "−0.1103"}, {"measurement": "log2 TS", "setting": "CES2 knockout", "result": "−0.115"}, {"measurement": "log2 TS", "setting": "CES3 knockout", "result": "−0.1816"}, {"measurement": "log2 TS", "setting": "CFTR knockout", "result": "−0.552"}, {"measurement": "log2 TS", "setting": "CHAT knockout", "result": 0.03889}, {"measurement": "log2 TS", "setting": "CHI3L1 knockout", "result": "−0.08904"}, {"measurement": "log2 TS", "setting": "CHI3L2 knockout", "result": "−0.203"}, {"measurement": "log2 TS", "setting": "CHIA knockout", "result": "−0.1854"}, {"measurement": "log2 TS", "setting": "CHID1 knockout", "result": "−0.2305"}, {"measurement": "log2 TS", "setting": "CHIT1 knockout", "result": "−0.1013"}, {"measurement": "log2 TS", "setting": "CHKA knockout", "result": 0.1899}, {"measurement": "log2 TS", "setting": "CHPF knockout", "result": "−0.1196"}, {"measurement": "log2 TS", "setting": "CHPT1 knockout", "result": 0.05664}, {"measurement": "log2 TS", "setting": "CHRNA1 knockout", "result": "−0.2091"}, {"measurement": "log2 TS", "setting": "CHRNA2 knockout", "result": "−0.09543"}, {"measurement": "log2 TS", "setting": "CHRNA3 knockout", "result": 0.193}, {"measurement": "log2 TS", "setting": "CHRNA4 knockout", "result": "−0.2119"}, {"measurement": "log2 TS", "setting": "CHRNA5 knockout", "result": "−0.1927"}, {"measurement": "log2 TS", "setting": "CHRNA6 knockout", "result": "−0.00193"}, {"measurement": "log2 TS", "setting": "CHRNA7 knockout", "result": "−0.4166"}, {"measurement": "log2 TS", "setting": "CHRNA9 knockout", "result": "−0.2542"}, {"measurement": "log2 TS", "setting": "CHRNA10 knockout", "result": "−0.09517"}, {"measurement": "log2 TS", "setting": "CHRNB1 knockout", "result": "−0.07599"}, {"measurement": "log2 TS", "setting": "CHRNB2 knockout", "result": "−0.2245"}, {"measurement": "log2 TS", "setting": "CHRNB3 knockout", "result": "−0.3189"}, {"measurement": "log2 TS", "setting": "CHRNB4 knockout", "result": "−0.4141"}, {"measurement": "log2 TS", "setting": "CHRND knockout", "result": "−0.5686"}, {"measurement": "log2 TS", "setting": "CHRNE knockout", "result": "−0.137"}, {"measurement": "log2 TS", "setting": "CHRNG knockout", "result": 0.05205}, {"measurement": "log2 TS", "setting": "CHST1 knockout", "result": "−0.0245"}, {"measurement": "log2 TS", "setting": "CHST6 knockout", "result": "−0.3091"}, {"measurement": "log2 TS", "setting": "CKB knockout", "result": "−0.247"}, {"measurement": "log2 TS", "setting": "CKM knockout", "result": "−0.3126"}, {"measurement": "log2 TS", "setting": "CKMT2 knockout", "result": "−0.2525"}, {"measurement": "log2 TS", "setting": "CLC knockout", "result": "−0.314"}, {"measurement": "log2 TS", "setting": "CLCA1 knockout", "result": "−0.142"}, {"measurement": "log2 TS", "setting": "CLCA2 knockout", "result": "−0.4614"}, {"measurement": "log2 TS", "setting": "CLCA4 knockout", "result": 0.05396}, {"measurement": "log2 TS", "setting": "CLCN1 knockout", "result": "−0.1326"}, {"measurement": "log2 TS", "setting": "CLCN2 knockout", "result": "−0.1747"}, {"measurement": "log2 TS", "setting": "CLCN3 knockout", "result": "−0.494"}, {"measurement": "log2 TS", "setting": "CLCN4 knockout", "result": 0.0428}, {"measurement": "log2 TS", "setting": "CLCN5 knockout", "result": "−0.4161"}, {"measurement": "log2 TS", "setting": "CLCN6 knockout", "result": "−0.3635"}, {"measurement": "log2 TS", "setting": "CLCN7 knockout", "result": "−0.1319"}, {"measurement": "log2 TS", "setting": "CLCNKA knockout", "result": "−0.1822"}, {"measurement": "log2 TS", "setting": "CLCNKB knockout", "result": "−0.3352"}, {"measurement": "log2 TS", "setting": "CLIC1 knockout", "result": "−0.09123"}, {"measurement": "log2 TS", "setting": "CLIC2 knockout", "result": "−0.1159"}, {"measurement": "log2 TS", "setting": "CLIC3 knockout", "result": 0.07472}, {"measurement": "log2 TS", "setting": "CLIC4 knockout", "result": "−0.06827"}, {"measurement": "log2 TS", "setting": "CLIC5 knockout", "result": "−0.3935"}, {"measurement": "log2 TS", "setting": "CLIC6 knockout", "result": "−0.02678"}, {"measurement": "log2 TS", "setting": "CLYBL knockout", "result": 0.05734}, {"measurement": "log2 TS", "setting": "CMAS knockout", "result": "−0.3056"}, {"measurement": "log2 TS", "setting": "CMPK1 knockout", "result": "−0.1483"}, {"measurement": "log2 TS", "setting": "CNDP1 knockout", "result": "−0.1314"}, {"measurement": "log2 TS", "setting": "CNDP2 knockout", "result": "−0.1743"}, {"measurement": "log2 TS", "setting": "CNGA1 knockout", "result": "−0.1817"}, {"measurement": "log2 TS", "setting": "CNGA2 knockout", "result": "−0.3543"}, {"measurement": "log2 TS", "setting": "CNGA3 knockout", "result": 0.05484}, {"measurement": "log2 TS", "setting": "CNGA4 knockout", "result": "−0.3821"}, {"measurement": "log2 TS", "setting": "CNGB1 knockout", "result": "−0.4165"}, {"measurement": "log2 TS", "setting": "CNGB3 knockout", "result": "−0.1968"}, {"measurement": "log2 TS", "setting": "COA5 knockout", "result": "−0.2719"}, {"measurement": "log2 TS", "setting": "COASY knockout", "result": 0.06804}, {"measurement": "log2 TS", "setting": "COMT knockout", "result": "−0.2352"}, {"measurement": "log2 TS", "setting": "COMTD1 knockout", "result": "−0.123"}, {"measurement": "log2 TS", "setting": "COQ3 knockout", "result": "−0.1115"}, {"measurement": "log2 TS", "setting": "COQ5 knockout", "result": "−0.3619"}, {"measurement": "log2 TS", "setting": "COQ6 knockout", "result": "−0.1357"}, {"measurement": "log2 TS", "setting": "COQ9 knockout", "result": 0.009879}, {"measurement": "log2 TS", "setting": "COX10 knockout", "result": "−0.3233"}, {"measurement": "log2 TS", "setting": "COX11 knockout", "result": "−0.3148"}, {"measurement": "log2 TS", "setting": "COX15 knockout", "result": "−0.6246"}, {"measurement": "log2 TS", "setting": "COX17 knockout", "result": "−0.66"}, {"measurement": "log2 TS", "setting": "COX20 knockout", "result": "−0.2164"}]}
